From ChEMBL document CHEMBL1201862, “PubChem BioAssay data set” (2004)
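48-hour exposure; five concentrations; linearly interpolated endpoints. GI50 = concentration required for 50% inhibition of growth.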 Activity calls are given as the source filed them. Rule as the data show it: active = GI50 up to about 1.1 µM and inactive = higher.

Experiments:
Experiment in all cases: DTP human tumour cell line panel, 48 h
HCT-15 = system: HCT-15
COLO 205 = system: COLO 205
SK-MEL-5 = system: SK-MEL-5
NCI-H522 = system: NCI-H522
A549 = system: A549
ACHN = system: ACHN
HL-60 = system: HL-60
UO-31 = system: UO-31
CCRF-CEM = system: CCRF-CEM
NCI-H23 = system: NCI-H23
EKVX = system: EKVX
SK-MEL-28 = system: SK-MEL-28
RXF 393 = system: RXF 393
RPMI-8226 = system: RPMI-8226
SW-620 = system: SW-620
OVCAR-8 = system: OVCAR-8
NCI-H460 = system: NCI-H460
SF-539 = system: SF-539
HCT-116 = system: HCT-116
XF498 = system: XF498
LOX IMVI = system: LOX IMVI
DMS-273 = system: DMS-273
SN12C = system: SN12C
A498 = system: A498
HOP-92 = system: HOP-92
DMS-114 = system: DMS-114
HOP-62 = system: HOP-62
SF-295 = system: SF-295
MOLT-4 = system: MOLT-4
HOP-18 = system: HOP-18
DLD-1 = system: DLD-1
LXFL 529 = system: LXFL 529
TK-10 = system: TK-10
K562 = system: K562
U-251 = system: U-251
RXF 631 = system: RXF 631
KM-20L2 = system: KM-20L2
M14 = system: M14
SF-268 = system: SF-268
SK-OV-3 = system: SK-OV-3
786-0 = system: 786-0
UACC-257 = system: UACC-257
OVCAR-5 = system: OVCAR-5
HCC 2998 = system: HCC 2998
KM12 = system: KM12
M19-MEL = system: M19-MEL
SK-MEL-2 = system: SK-MEL-2
SNB-78 = system: SNB-78
Malme-3M = system: Malme-3M
SNB-75 = system: SNB-75
OVCAR-3 = system: OVCAR-3
HT-29 = system: HT-29
SNB-19 = system: SNB-19
SR = system: SR
OVCAR-4 = system: OVCAR-4
CAKI-1 = system: CAKI-1
UACC-62 = system: UACC-62
NCI-H226 = system: NCI-H226
IGROV-1 = system: IGROV-1

For `Nc1ccn(C2OC(C(O)CO)C(O)C2O)c(=O)n1` (stereo unspecified), the GI50 (HCT-15) was > 100 µM, the GI50 (COLO 205) was > 100 µM (inactive) and the GI50 (SK-MEL-5) was > 100 µM (inactive). The GI50 (NCI-H522) was > 100 µM (inactive), the GI50 (A549) was > 100 µM (inactive) and the GI50 (ACHN) was > 100 µM (inactive). The GI50 (HL-60) was > 100 µM (inactive), the GI50 (UO-31) was 69.2 µM (inactive) and the GI50 (CCRF-CEM) was > 100 µM (inactive). For the same compound, the GI50 (NCI-H23) was > 100 µM (inactive), the GI50 (EKVX) was > 100 µM (inactive) and the GI50 (SK-MEL-28) was > 100 µM (inactive). For the same compound, the GI50 (RXF 393) was > 100 µM (inactive), the GI50 (RPMI-8226) was > 100 µM (inactive) and the GI50 (SW-620) was > 100 µM (inactive). The GI50 (OVCAR-8) was > 100 µM (inactive), the GI50 (NCI-H460) was > 100 µM (inactive) and the GI50 (SF-539) was > 100 µM (inactive). For the same compound, the GI50 (HCT-116) was > 100 µM (inactive), the GI50 (XF498) was > 100 µM (inactive) and the GI50 (LOX IMVI) was > 100 µM (inactive). For the same compound, the GI50 (DMS-273) was > 100 µM (inactive), the GI50 (SN12C) was > 100 µM (inactive) and the GI50 (A498) was > 100 µM (inactive). For the same compound, the GI50 (HOP-92) was > 100 µM (inactive), the GI50 (DMS-114) was > 100 µM (inactive) and the GI50 (HOP-62) was > 100 µM (inactive). The GI50 (SF-295) was > 100 µM (inactive), the GI50 (MOLT-4) was > 100 µM (inactive) and the GI50 (HOP-18) was > 100 µM (inactive). For the same compound, the GI50 (DLD-1) was > 100 µM (inactive), the GI50 (LXFL 529) was > 100 µM (inactive) and the GI50 (TK-10) was > 100 µM (inactive). The GI50 (K562) was > 100 µM (inactive), the GI50 (U-251) was > 100 µM (inactive) and the GI50 (RXF 631) was > 100 µM (inactive). The GI50 (KM-20L2) was > 100 µM (inactive), the GI50 (M14) was > 100 µM (inactive) and the GI50 (SF-268) was > 100 µM (inactive). The GI50 (SK-OV-3) was > 100 µM (inactive).
With `Cc1cccc(-c2nnc(S)[nH]2)c1` the GI50 (HCT-15) was > 100 µM, the GI50 (COLO 205) was > 100 µM (inactive) and the GI50 (786-0) was > 100 µM (inactive). For the same compound, the GI50 (SK-MEL-5) was > 100 µM (inactive), the GI50 (NCI-H522) was > 100 µM (inactive) and the GI50 (A549) was > 100 µM (inactive). The GI50 (UACC-257) was > 100 µM (inactive), the GI50 (ACHN) was > 100 µM (inactive) and the GI50 (HL-60) was > 100 µM (inactive). The GI50 (UO-31) was > 100 µM (inactive), the GI50 (CCRF-CEM) was > 100 µM (inactive) and the GI50 (OVCAR-5) was > 100 µM (inactive). The GI50 (NCI-H23) was > 100 µM (inactive), the GI50 (EKVX) was > 100 µM (inactive) and the GI50 (HCC 2998) was > 100 µM (inactive). The GI50 (SK-MEL-28) was > 100 µM (inactive), the GI50 (KM12) was > 100 µM (inactive) and the GI50 (RPMI-8226) was > 100 µM (inactive). The GI50 (SW-620) was > 100 µM (inactive), the GI50 (OVCAR-8) was > 100 µM (inactive) and the GI50 (M19-MEL) was > 100 µM (inactive). For the same compound, the GI50 (NCI-H460) was > 100 µM (inactive), the GI50 (SF-539) was > 100 µM (inactive) and the GI50 (HCT-116) was > 100 µM (inactive). The GI50 (SK-MEL-2) was > 100 µM (inactive), the GI50 (XF498) was > 100 µM (inactive) and the GI50 (DMS-273) was > 100 µM (inactive). For the same compound, the GI50 (SN12C) was > 100 µM (inactive), the GI50 (SNB-78) was > 100 µM (inactive) and the GI50 (A498) was > 100 µM (inactive). For the same compound, the GI50 (HOP-92) was > 100 µM (inactive), the GI50 (Malme-3M) was > 100 µM (inactive) and the GI50 (HOP-62) was > 100 µM (inactive). For the same compound, the GI50 (SF-295) was > 100 µM (inactive), the GI50 (MOLT-4) was 89.5 µM (inactive) and the GI50 (SNB-75) was > 100 µM (inactive). For the same compound, the GI50 (OVCAR-3) was > 100 µM (inactive), the GI50 (HOP-18) was > 100 µM (inactive) and the GI50 (HT-29) was > 100 µM (inactive). For the same compound, the GI50 (SNB-19) was > 100 µM (inactive), the GI50 (DLD-1) was > 100 µM (inactive) and the GI50 (LXFL 529) was > 100 µM (inactive). The GI50 (SR) was > 100 µM (inactive), the GI50 (TK-10) was > 100 µM (inactive) and the GI50 (OVCAR-4) was > 100 µM (inactive). The GI50 (K562) was > 100 µM (inactive), the GI50 (U-251) was > 100 µM (inactive) and the GI50 (CAKI-1) was > 100 µM (inactive). For the same compound, the GI50 (RXF 631) was > 100 µM (inactive), the GI50 (UACC-62) was > 100 µM (inactive) and the GI50 (NCI-H226) was > 100 µM (inactive). For the same compound, the GI50 (KM-20L2) was > 100 µM (inactive), the GI50 (IGROV-1) was > 100 µM (inactive) and the GI50 (M14) was > 100 µM (inactive). The GI50 (SF-268) was > 100 µM (inactive) and the GI50 (SK-OV-3) was > 100 µM (inactive).
